Legend:
[1] = tested on: MBT-2 tumors; experiment: Gene expression profiling (qRT-PCR) in MBT-2 tumors after 10 days of tasquinimod (Example 2); type: in vivo, mouse; details: 30 mg/kg p.o. twice daily from day 10 for 10 days; FIG. 2
Experimental: FIG. 2: Gene expression profiling in MBT-2 tumors derived from mice treated with 30 mg/kg p.o. of tasquinimod twice daily from day 10 after tumor inoculation. Tasquinimod treatment was carried out for 10 days. Data are represented as fold change of treated tumors compared to control tumors.
Mice were treated as described in Example 1. After 10 days of treatment with tasquinimod, i.e. 20 days after tumor inoculation, RNA from tumors was isolated from 100 μηη of OCT-embedded tumor cryosections using Trizol Reagent (Life Technologies). RNA concentration and purity was determined through measurement of A260/A280 ratios with a NanoDrop ND-1000 spectrophotometer. RNA integrity was checked using the Agilent 2100 Bioanalyzer. cDNA was prepared using High-Capacity cDNA Reverse Transcription Kit (LifeTechnologies) following the manufacturer's instructions. Q-PCR was performed with a […] PCR-protocol (95° C. for 10 min, followed by 40 cycles of 95° C. for 15 sec and 60° C. for 1 min) using Taqman gene expression (LifeTechnologies). Expression levels were calculated as normalized ACt expression values between target gene and the two “housekeeping” and Hmbs and Cyclophilin A for Taqman technology. Data were presented as fold induction (2AACt) of treated tumors compared to control tumors. The probes used in the experiments are the following: […]

[2] = tested on: CD8+ T cells; experiment: Ex vivo T cell proliferation assay with tumor-derived CD11b+ cells; type: cell-based, mouse; details: CD11b+ from treated established tumors co-cultured 1:1 with T cells, 72 h; FIGS. 8A and B
Description: FIG. 7: Combination of tasquinimod with Anti-PD-L1 increases cytotoxic T cell activity. (A) Quantitative data of the percentage of tumor-infiltrating CD8+ cells on day 15 after treatment (n=6). (B) Left panel: Representative images showing immunostaining for granzyme B (brown staining) in tumors from control or treated groups. Original magnification: X200, inset: tumor overview. Scale bar: 5θ μm. Right panel: Quantification of granzyme B positive cells on tumor sections expressed as a percentage of total cells using an antibody against granzyme B (Kruskal-Wallis test; *, P=0.0326). (C) The concentration levels (pg/ml) of the following cytokines: IL-1β, IL-7, IL-1 2(p70) and IL-15 in tumor lysate from each group were quantified using Luminex Technology (n=5). (D) Splenocytes (n=5) from each group were stimulated with PMA/ionomycin in the presence of Brefeldin A. IL-2, TNF-a and IFN-γ production was examined by intracellular staining. […] Asterisks denote statistical significance using one-way ANOVA (*, P<0.05; **, P<0.005). […] P values were calculated based on Kruskal-Wallis test between the different groups (*, P<0.05; **, P<0.005). […] (A) Representative histograms obtained by FACS analysis showing the fluorescence intensity of CFSE-T cells gated on CD8+. […] (C) IFN-γ secretion in the supernatant of the co-culture is measured 72 hours following incubation at 37° C. using Luminex Technology. […]

[3] = tested on: MBT-2 tumor cells; experiment: Survival in orthotopic MBT-2 bladder tumor model; type: in vivo, mouse; details: tasquinimod 30 mg/kg twice a day 21 days; Anti-PD1 10 mg/kg i.p. twice weekly; control 29 days; FIG. 9
Experimental: FIG. 9: MBT-2 tumor cells were injected orthotopically into female C3H/HeJ mice. Briefly, after a period of 4-hour of water deprivation, mice were anaesthetized using a mix of Ketamine and Xylazine. A catheter (ref: 381212 24G, BD Insyte) was inserted in the bladder through the urethra and 30 μI 0.1 N HCl was injected for 15 seconds, then replaced by 30 μI 0.1 N NaOH for 15 seconds. MBT-2 tumor cells (2×1 06) were instilled into the bladder for 45 minutes. The treatment was initiated at day 3. Tasquinimod was given at the dose of 30 mg/kg by oral gavage twice a day for 21 consecutive days. Anti-PD1 (clone: RMP1-14) or its isotype control (clone 2A3) was injected by intraperitoneal route at the dose of 10 mg/kg twice weekly for two consecutive weeks (at D4, D7, D11 and D14). The survival of MBT-2 tumor-bearing mice treated with anti-PD1, tasquinimod, the combination, or IgG control are shown in FIG. 9 (n=13). Dunnet-Hsu test was used to compare overall survival between groups.

[4] = tested on: PD-1; experiment: PD-1 expression level after tasquinimod treatment (data not shown); type: in vivo, mouse; details: established MBT-2 tumors
[5] = tested on: human prostate, breast, bladder and colon tumor xenografts; details: pre-clinical models, Isaacs et al. 2013; cited from earlier work

For `COc1cccc2c1c(O)c(C(=O)N(C)c1ccc(C(F)(F)F)cc1)c(=O)n2C` [tasquinimod, 4-hydroxy-5-methoxy-N,1-dimethyl-2-oxo-N-[4-(trifluoromethyl)phenyl]-1,2-dihydroquinoline-3-carboxamide], the “expression of 11-12b” value [1] was “increase”, the “expression of CD206, a M2 macrophage marker” value [1] was “decrease” and the “expression of nos2” value [1] was “increase”. For the same molecule, the “mRNA expression of Cd274 in the tumor microenvironment” value [1] was “increase”, the “proliferation of stimulated CD8+ T cells ex vivo” value [2] was “limited ability” and the “median survival of mice” value [3] was 27 days. For the same molecule, the “expression level of PD-1” value [4] was “not changed” and the “efficacy as monotherapeutic agent against tumor xenografts” value [5] was “effective as a monotherapeutic agent”.

Reference: US20200129499A1, “COMBINATION OF TASQUINIMOD OR A PHARMACEUTICALLY ACCEPTABLE SALT THEREOF AND A PD-1 AND/OR PD-L1 INHIBITOR, FOR USE AS A MEDICAMENT” (ACTIVE BIOTECH AB, priority 2015, published 2020)
